According to patent publication US5843887A, “Compositions for delivery of polypeptides, and methods” (Allied Medical Research Associates, priority 1994, dated 1998):

Tests used:
[1] = pH of 8, in the presence of trypsin; cited from earlier work
serum glucose = experiment: IF and insulin injected into the sutured duodenal cavity of mice, serum glucose; format: in vivo; conditions: 50 mg IF and 4 I.U. insulin, decreases up until death, depending on the dose
Protocol: 10 g IF (dosage of 300 Units per mg; one unit will bind one nanogram of vitamin B12) was added to 1 liter of 0.02M phosphate buffered solution and stirred up to 37° C. […] The solution (with a prefered pH of about 6) was stirred at a temperature of 37° C. for 24 hours. The product was then dialysed at 4° C. and dehydrated by lyophilization.

[2] = doses of 100 to 500 μg, as in pernicious anemia; cited from earlier work
blood glucose level = experiment: oral administration of IF and/or porcine insulin to mice, blood glucose level; format: in vivo; conditions: administered orally (summary statement)
Protocol: The IF was substantially free of R-protein and prepared as in Example 1. […] Blood glucose level was measured with a blood glucose meter standard model Tracer (Boehringer) and produced the following results.

Substance: IF: glycoprotein with a molecular weight of 50 kDa, 351 amino acids, binds cobalamin
- affinity for cobalamin relative to that of R protein [1]: 150 times

Substance: Insulin alone: human biogenetic insulin (Novo Nordisk) of Example 1, injected alone
- change in serum glucose (serum glucose): did not cause a fall in serum glucose

Substance: cyanocobalamin
- fraction of dose absorbed (passive absorption) [2]: 1%

Substance: insulin
- change in serum glucose after oral administration (blood glucose level): no change in serum glucose
